These are literature values, as cited in US20240307364A1, “GAS TRANSMISSION EMULSION FOR INTRAVENOUS ADMINISTRATION” (priority 2021, published 2024).

Like-named read-outs stand apart in the source and are kept apart here.

For series [1] the following is noted: toxic or locally irritating properties of the detected impurity.
The conditions of series [2]: measure of relative solubility of PFOC in lipids.
The conditions of series [3]: 37° C.

Consider `CCOC(C)c1ccccc1` (single isomer, unassigned) [benzene, (1-ethoxyethyl)-], for which the “Toxicity, yes/no” value in series [1] is on record as “yes”.

In the case of `FC1(F)C(F)(F)C(F)(F)C(F)(F)C(F)(F)C1(F)F` (single isomer, unassigned) [cyclohexane, dodecafluoro-], the “Toxicity, yes/no” value in series [1] was “yes”.

Turning to `OCc1ccco1` (single isomer, unassigned) [furfurol], in series [1], the “Toxicity, yes/no” value was “yes”.

Consider `CCCCCO` (single isomer, unassigned) [pentanol], for which the “Toxicity, yes/no” value in series [1] was “yes”.

Regarding `FC(F)(F)C1(F)C(F)(F)C(F)(F)C(F)(F)C(F)(F)C1(F)F` (single isomer, unassigned) [perfluoro(methylcyclohexane)], the “Toxicity, yes/no” value in series [1] was “no”.

With `Cc1cc(O)n(Cc2ccccc2)c(=O)c1C#N` [1-benzyl-6-hydroxy-4-methyl-2(1H)-oxo-3-pyridinecarbonitrile], the “Toxicity, yes/no” value in series [1] is given as “yes”.

As for `CC1=NN(c2ccccc2)C(=O)C1` [3H-pyrazol-3-one, 2,4-dihydro-5-methyl-2-phenyl-], the “Toxicity, yes/no” value in series [1] is given as “yes”.

With `FC(F)(F)C(F)(F)C(F)(F)N1C(F)(F)C(F)(F)C(F)(F)C(F)(F)C1(F)C(F)(F)F` (stereo not drawn) [Perfluoro-1-propyl-2 methylpiperidine], the “TcrH (temperature at which equal volumes of PFOC and hexane are mixed together)” value (shortened to “TcrH”) in series [2] was 35 °C. Moreover, the “P, vapor tension” value in series [3] is 19 mm Hg. The “t1/2, elimination half-life” value (elimination from an organism) is 24 days. Besides, the “Grade of clearance rate” value (in vivo) was “Fast”.

With `FC1(F)C(F)(F)C(F)(F)C2(F)C(F)(F)C(F)(F)C(F)(F)C2(F)C1(F)F` (stereo not drawn) [Perfluorobicyclo[4.3.0]nonane], the “TcrH” value in series [2] was 13 °C. The “P, vapor tension” value in series [3] is on record as 33 mm Hg. In addition, for the setting “elimination from an organism”, the “t1/2, elimination half-life” value is reported as 4 days. Also, the “Grade of clearance rate” value (in vivo) is “Fast”.

With `FC1(F)C(F)(F)C2(F)C(F)(F)C(F)(F)C(F)(F)C3(F)C(F)(F)C(F)(F)C(F)(C1(F)F)C23F` (stereo not drawn) [Perfluorodecahydroacenaphthene], in series [2], the “TcrH” value was 24 °C. Moreover, in series [3], the “P, vapor tension” value is given as 2 mm Hg. In addition, the “t1/2, elimination half-life” value (elimination from an organism) is given as 7 days. In addition, the “Grade of clearance rate” value (in vivo) is listed as “Fast”.

As to `FC1(F)C(F)(F)C(F)(F)C2(F)C(F)(F)C(F)(F)C(F)(F)C(F)(F)C2(F)C1(F)F` (stereo not drawn) [Perfluorodecalin (PFD), Perfluorodecalin], the “TcrH” value in series [2] was 22 °C. Moreover, the “P, vapor tension” value in series [3] is reported as 12 mm Hg. Besides, for the setting “in vivo”, the “Grade of clearance rate” value is reported as “Fast”.

Take `FC(F)(F)N1C(F)(F)C(F)(F)C(F)(C2(F)C(F)(F)C(F)(F)C(F)(F)C(F)(F)C2(F)F)C(F)(F)C1(F)F` [Perfluoromethylcyclohexylpiperidine]: the “t1/2, elimination half-life” value (elimination from an organism) is 90 days. In addition, the “Grade of clearance rate” value (in vivo) was “Slow”.

Consider `FC(F)(F)C(F)(F)C(F)(F)C(F)(F)C(F)(F)C(F)(F)C(F)(F)C(F)(F)Br` [Perfluorooctyl bromide (PFOB), Perfluorooctyl bromide], for which the “TcrH” value in series [2] was −20 °C. In addition, in series [3], the “P, vapor tension” value is reported as 10.5 mm Hg. Besides, the “Grade of clearance rate” value (in vivo) was “Fast”.

`FC(F)(F)C(F)(F)C(F)(F)C(F)(F)N(C(F)(F)C(F)(F)C(F)(F)C(F)(F)F)C(F)(F)C(F)(F)C(F)(F)C(F)(F)F` [Perfluorotributylamine (PFTBA), Perfluorotributylamine]: the “TcrH” value in series [2] was 61 °C. For the same compound, in series [3], the “P, vapor tension” value was 1 mm Hg. Besides, the “t1/2, elimination half-life” value (elimination from an organism) was 400 to 900 days. Moreover, the “Grade of clearance rate” value (in vivo) was “Slow”.

In the case of `FC(F)(F)C(F)(F)C(F)(F)N(C(F)(F)C(F)(F)C(F)(F)F)C(F)(F)C(F)(F)C(F)(F)F` [Perfluorotripropylamine (PFTPA), Perfluorotripropylamine], the “TcrH” value in series [2] was 43 °C. The “P, vapor tension” value in series [3] was 17 mm Hg. For the same compound, the “t1/2, elimination half-life” value (elimination from an organism) was 65 days. In addition, the “Grade of clearance rate” value (in vivo) is “Slow”.

As to `CCOC(=O)c1ccccc1` [benzoic acid ethyl ester], the “Toxicity, yes/no” value in series [1] is recorded as “yes”.

As to `CC1C=CCC(C)(C)C1` (stereo not drawn) [cyclohexene, 3,5,5-trimethyl-], the “Toxicity, yes/no” value in series [1] was “yes”.

For `CC(C)COC(=O)c1ccccc1C(=O)OCC(C)C` [diisobutyl phthalate], in series [1], the “Toxicity, yes/no” value is given as “yes”.

On to `COC(=O)c1ccccc1C(=O)OC` [dimethyl phthalate], for which the “Toxicity, yes/no” value in series [1] was “no”.

Regarding `OCC(O)CO` [glycerol], the “Toxicity, yes/no” value in series [1] is recorded as “no”.

Take `Fc1ccc2ccccc2c1` [naphthalene, 2-fluoro-]: in series [1], the “Toxicity, yes/no” value is listed as “yes”.

Turning to `c1ccc2ccccc2c1` [naphthalene], the “Toxicity, yes/no” value in series [1] was “yes”.

Take `CO/C(=N\O)c1ccccc1` [oxime-, methoxy-phenyl-]: the “Toxicity, yes/no” value in series [1] is listed as “yes”.

In the case of `FC(F)(F)N(C(F)(F)C(F)(F)C(F)(F)C(F)(F)F)C1(F)C(F)(F)C(F)(F)C(F)(C(F)(F)F)C(F)(F)C1(F)F` (stereo not drawn) [perfluoromethylbutyl(4-methylcyclohexyl)amine], the “Toxicity, yes/no” value in series [1] is given as “no”.

With `Cc1cc(Cc2cc(C)cc(C(C)(C)C)c2O)c(O)c(C(C)(C)C)c1` [phenol, 2,2′-methylenebis[6-(1,1-dimethylethyl)-4-methyl-], the “Toxicity, yes/no” value in series [1] is listed as “yes”.

For `CN(C)C(=S)N(C)C` [thiourea, tetramethyl-], in series [1], the “Toxicity, yes/no” value is reported as “yes”.

In the case of O-ethyl-methoxy-phenyl-oxime, in series [1], the “Toxicity, yes/no” value is reported as “yes”.

Consider Perfluorodihexyl ether, for which the “TcrH” value in series [2] is 59 °C. The “P, vapor tension” value in series [3] is 2 mm Hg. Besides, for the setting “elimination from an organism”, the “t1/2, elimination half-life” value is given as 500 days. Besides, the “Grade of clearance rate” value (in vivo) is “Slow”.

In the case of “Perfluorodimethyladamantane [Perfluorodimethyladamantane (PFDMA)]”, the “TcrH” value in series [2] is 32 °C. Further, where the note is “in vivo”, the “Grade of clearance rate” value is listed as “Fast” and the “t1/2, elimination half-life” value was 10 to 20 days.
